Experimental data: ChEMBL document CHEMBL1138365, “Application of 3D-QSAR for identification of descriptors defining bioactivity of antimicrobial peptides” (2007)
Converted amounts (≈) assume the structure as drawn. Non-standard residues stand in square brackets, D forms with d. Residues, ends and D or L forms follow the SMILES beside them. ξ: configuration not given here. Pro(3ξ,4ξ-(CH2)4) = O=C(O)[C@H]1NCC2CCCCC21; Tic = O=C(O)[C@@H]1Cc2ccccc2CN1; dTic = O=C(O)[C@H]1Cc2ccccc2CN1; ξTic = O=C(O)C1Cc2ccccc2CN1; Ahx = NCCCCCC(=O)O; GABA = NCCCC(=O)O; βAla = NCCC(=O)O

Columns and labels:
[1] = test system: Mycolicibacterium fortuitum; assay: Antibacterial activity against Mycobacterium ranae; format: functional
Staphylococcus aureus = assay: Antibacterial activity against Staphylococcus aureus; format: functional

Structure (SMILES) | MIC [1] | MIC (Staphylococcus aureus)
CC(=O)NCC(=O)N1Cc2ccccc2C[C@H]1C(=O)N1CC2CCCCC2[C@H]1C(=O)N[C@@H](CCCCN)C(=O)N1Cc2ccccc2C[C@H]1C(=O)N1CC2CCCCC2[C@H]1C(=O)NCC(=O)N1Cc2ccccc2CC1C(=O)N1CC2CCCCC2[C@H]1C(=O)N[C@@H](CCCCN)C(=O)N1Cc2ccccc2C[C@H]1C(=O)N[C@@H](CCCCN)C(=O)N[C@@H](CCCCN)C(=O)N[C@@H](CCCCN)C(=O)N[C@@H](CCCCN)C(N)=O (stereo partly specified) (Ac-G[Tic][Pro(3ξ,4ξ-(CH2)4)]K[Tic][Pro(3ξ,4ξ-(CH2)4)]G[ξTic][Pro(3ξ,4ξ-(CH2)4)]K[Tic]KKKK-NH2) | 3 µM (≈ 6.1 µg/mL) | 10 µM (≈ 20.3 µg/mL)
CC(=O)NCCCCCC(=O)N[C@@H](Cc1ccccc1)C(=O)N1Cc2ccccc2C[C@H]1C(=O)N1CC2CCCCC2[C@H]1C(=O)NCCCCCC(=O)N[C@@H](CCCCN)C(=O)N1Cc2ccccc2C[C@H]1C(=O)N1CC2CCCCC2[C@H]1C(=O)NCCCCCC(=O)N[C@@H](Cc1ccccc1)C(=O)N1Cc2ccccc2C[C@H]1C(=O)N1CC2CCCCC2[C@H]1C(=O)NCCCCCC(=O)N[C@@H](CCCCN)C(=O)N1Cc2ccccc2C[C@H]1C(=O)N[C@@H](CCCCN)C(=O)N[C@@H](CCCCN)C(=O)N[C@@H](CCCCN)C(=O)N[C@@H](CCCCN)C(N)=O (stereo partly specified) (Ac-[Ahx]F[Tic][Pro(3ξ,4ξ-(CH2)4)][Ahx]K[Tic][Pro(3ξ,4ξ-(CH2)4)][Ahx]F[Tic][Pro(3ξ,4ξ-(CH2)4)][Ahx]K[Tic]KKKK-NH2) | 3 µM (≈ 8 µg/mL) | 10 µM (≈ 26.7 µg/mL)
CC(=O)NCCCC(=O)N[C@@H](Cc1ccccc1)C(=O)N1Cc2ccccc2C[C@H]1C(=O)N1CC2CCCCC2[C@H]1C(=O)NCCCC(=O)N[C@@H](CCCCN)C(=O)N1Cc2ccccc2C[C@H]1C(=O)N1CC2CCCCC2[C@H]1C(=O)NCCCC(=O)N[C@@H](Cc1ccccc1)C(=O)N1Cc2ccccc2C[C@H]1C(=O)N1CC2CCCCC2[C@H]1C(=O)NCCCC(=O)N[C@@H](CCCCN)C(=O)N1Cc2ccccc2C[C@H]1C(=O)N[C@@H](CCCCN)C(=O)N[C@@H](CCCCN)C(=O)N[C@@H](CCCCN)C(=O)N[C@@H](CCCCN)C(N)=O (stereo partly specified) (Ac-[GABA]F[Tic][Pro(3ξ,4ξ-(CH2)4)][GABA]K[Tic][Pro(3ξ,4ξ-(CH2)4)][GABA]F[Tic][Pro(3ξ,4ξ-(CH2)4)][GABA]K[Tic]KKKK-NH2) | 10 µM (≈ 25.5 µg/mL) | 100 µM (≈ 255 µg/mL)
CC(=O)NCCCC(=O)N[C@@H](Cc1ccccc1)C(=O)N1Cc2ccccc2C[C@H]1C(=O)N1CC2CCCCC2[C@H]1C(=O)NCCCC(=O)N[C@@H](CCCCN)C(=O)N1Cc2ccccc2C[C@H]1C(=O)N1CC2CCCCC2[C@H]1C(=O)NCCCC(=O)N[C@@H](Cc1ccccc1)C(=O)N1Cc2ccccc2C[C@H]1C(=O)N1CC2CCCCC2[C@H]1C(=O)NCCCC(=O)N[C@@H](CCCCN)C(=O)N1Cc2ccccc2C[C@H]1C(=O)N[C@@H](CCCCN)C(=O)N[C@@H](CCCCN)C(=O)N[C@@H](CCCCN)C(=O)N[C@@H](CCCCN)C(=O)N[C@@H](CCCCN)C(N)=O (stereo partly specified) (Ac-[GABA]F[Tic][Pro(3ξ,4ξ-(CH2)4)][GABA]K[Tic][Pro(3ξ,4ξ-(CH2)4)][GABA]F[Tic][Pro(3ξ,4ξ-(CH2)4)][GABA]K[Tic]KKKKK-NH2) | 3 µM (≈ 8.04 µg/mL) | 30 µM (≈ 80.4 µg/mL)
CC(=O)NCCC(=O)N[C@@H](Cc1ccccc1)C(=O)N1Cc2ccccc2C[C@H]1C(=O)N1CC2CCCCC2[C@H]1C(=O)NCCC(=O)N[C@@H](CCCCN)C(=O)N1Cc2ccccc2C[C@H]1C(=O)N1CC2CCCCC2[C@H]1C(=O)NCCC(=O)N[C@@H](Cc1ccccc1)C(=O)N1Cc2ccccc2C[C@@H]1C(=O)N1CC2CCCCC2[C@H]1C(=O)NCCC(=O)N[C@@H](CCCCN)C(=O)N1Cc2ccccc2C[C@H]1C(=O)N[C@@H](CCCCN)C(=O)N[C@@H](CCCCN)C(=O)N[C@@H](CCCCN)C(=O)N[C@@H](CCCCN)C(N)=O (stereo partly specified) (Ac-[βAla]F[Tic][Pro(3ξ,4ξ-(CH2)4)][βAla]K[Tic][Pro(3ξ,4ξ-(CH2)4)][βAla]F[dTic][Pro(3ξ,4ξ-(CH2)4)][βAla]K[Tic]KKKK-NH2) | 1 µM (≈ 2.5 µg/mL) | 10 µM (≈ 25 µg/mL)
NCCCC[C@H](NC(=O)[C@H](CCCCN)NC(=O)[C@H](CCCCN)NC(=O)[C@H](CCCCN)NC(=O)[C@@H]1Cc2ccccc2CN1C(=O)[C@H](CCCCN)NC(=O)CNC(=O)[C@@H]1C2CCCCC2CN1C(=O)[C@@H]1Cc2ccccc2CN1C(=O)[C@H](Cc1ccccc1)NC(=O)CNC(=O)[C@@H]1C2CCCCC2CN1C(=O)[C@@H]1Cc2ccccc2CN1C(=O)[C@H](CCCCN)NC(=O)CNC(=O)[C@@H]1C2CCCCC2CN1C(=O)[C@@H]1Cc2ccccc2CN1C(=O)[C@H](Cc1ccccc1)NC(=O)CN)C(N)=O (stereo partly specified) (H-GF[Tic][Pro(3ξ,4ξ-(CH2)4)]GK[Tic][Pro(3ξ,4ξ-(CH2)4)]GF[Tic][Pro(3ξ,4ξ-(CH2)4)]GK[Tic]KKKK-NH2) | 10 µM (≈ 24 µg/mL) | 10 µM (≈ 24 µg/mL)
CC(C)C[C@H](NC(=O)[C@@H](N)CCCCN)C(=O)N1Cc2ccccc2C[C@H]1C(=O)N1CC2CCCCC2[C@H]1C(=O)NCC(=O)N[C@@H](CCCCN)C(=O)N1Cc2ccccc2C[C@H]1C(=O)N1CC2CCCCC2[C@H]1C(=O)NCC(=O)N[C@@H](Cc1ccccc1)C(=O)N1Cc2ccccc2C[C@H]1C(=O)N1CC2CCCCC2[C@H]1C(=O)NCC(=O)N[C@@H](CCCCN)C(=O)N1Cc2ccccc2C[C@H]1C(=O)N[C@@H](CCCCN)C(=O)N[C@@H](CCCCN)C(=O)N[C@@H](CCCCN)C(=O)N[C@@H](CCCCN)C(N)=O (stereo partly specified) (H-KL[Tic][Pro(3ξ,4ξ-(CH2)4)]GK[Tic][Pro(3ξ,4ξ-(CH2)4)]GF[Tic][Pro(3ξ,4ξ-(CH2)4)]GK[Tic]KKKK-NH2) | 3 µM (≈ 7.31 µg/mL) | 30 µM (≈ 73.1 µg/mL)
CC(C)C[C@H](NC(=O)[C@@H](N)CCCCN)C(=O)N1Cc2ccccc2C[C@H]1C(=O)N1CC2CCCCC2[C@H]1C(=O)N[C@@H](CCCCN)C(=O)N1Cc2ccccc2C[C@H]1C(=O)N1CC2CCCCC2[C@H]1C(=O)N[C@@H](Cc1ccccc1)C(=O)N1Cc2ccccc2C[C@H]1C(=O)N1CC2CCCCC2[C@H]1C(=O)N[C@@H](CCCCN)C(=O)N1Cc2ccccc2C[C@H]1C(=O)N1CC2CCCCC2[C@H]1C(=O)N[C@@H](Cc1ccccc1)C(=O)N1Cc2ccccc2C[C@H]1C(=O)N1CC2CCCCC2[C@H]1C(=O)N[C@@H](CCCCN)C(=O)N1Cc2ccccc2C[C@H]1C(=O)N1CC2CCCCC2[C@H]1C(=O)N[C@@H](CCCCN)C(=O)N[C@@H](CCCNC(=N)N)C(N)=O (stereo partly specified) (H-KL[Tic][Pro(3ξ,4ξ-(CH2)4)]K[Tic][Pro(3ξ,4ξ-(CH2)4)]F[Tic][Pro(3ξ,4ξ-(CH2)4)]K[Tic][Pro(3ξ,4ξ-(CH2)4)]F[Tic][Pro(3ξ,4ξ-(CH2)4)]K[Tic][Pro(3ξ,4ξ-(CH2)4)]KR-NH2) | 30 µM (≈ 92.5 µg/mL) | 10 µM (≈ 30.8 µg/mL)
